Biological target: T1, CymA (Shewanella oneidensis, UniProt Q8E8S0)
T1 sequence (Q8E8S0 1-187): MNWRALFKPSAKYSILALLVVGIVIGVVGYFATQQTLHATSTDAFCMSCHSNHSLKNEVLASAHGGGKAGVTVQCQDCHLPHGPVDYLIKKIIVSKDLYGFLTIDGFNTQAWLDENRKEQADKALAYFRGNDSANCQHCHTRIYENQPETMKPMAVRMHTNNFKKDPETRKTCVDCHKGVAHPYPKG
Experiment: protein-film cyclic voltammetry, inhibition of menaquinone-7 reduction
Assay type: biochemical

`CCCCCCCc1cc(O)c2ccccc2[n+]1[O-]` [HQNO] was tested, and the Ki was 800 nM.

— paper PMC3340143 (The Journal of Biological Chemistry, 2012)
